Reference: US20240108008A1, “COMPOSITIONS COMPRISING MESOSULFURON-METHYL AND TEHP” (BAYER AKTIENGESELLSCHAFT, priority 2020, published 2024)

Key:
TRZAW, winter wheat = experiment: Greenhouse selectivity trials, wheat crop injury post-emergence; assay type: in vivo, winter wheat (variety: Dekan); settings: 2 kg of TEHP per hectare, in combination with mesosulfuron-methyl and/or a salt thereof
Source text: The 00 damage (injury) indicated refers to the maximum damage observed in the respective crop.

harmful plants = experiment: Adjuvant effect on performance of mesosulfuron-methyl; assay type: in vivo; settings: same application rate as tri(butoxyethyl) phosphate (TBEP)

With `CCCCC(CC)COP(=O)(OCC(CC)CCCC)OCC(CC)CCCC` (centres unmarked) [TEHP, Tris(2-ethylhexyl) phosphate] the “phytotoxic effects in crop plants such as wheat” value (TRZAW, winter wheat) was “significant phytotoxic effects” and the “effects as adjuvant in comparison to TBEP” value (harmful plants) was “superior”.
